Laboratory results published in patent US5352451A, “Biological insect control agents and methods of use” (priority 1991, dated 1994).

These compounds were tested against T1, EGT (Autographa californica nuclear polyhedrosis virus, UniProt P18569). Settings: substrate 1 mM; extracellular medium from wt-AcMNPV infected cells; 0.05 μCi UDP-[U-14C]glucose.
T1 construct: extracellular medium from wt-AcMNPV infected cells containing significant egt activity; endogenous in cells; host or cells: Spodoptera frugiperda IPLB-SF-21 (SF) cells infected with wild-type AcMNPV; extracellular medium used unpurified; EGT made from the virus's own gene
T1 sequence (P18569 19-506): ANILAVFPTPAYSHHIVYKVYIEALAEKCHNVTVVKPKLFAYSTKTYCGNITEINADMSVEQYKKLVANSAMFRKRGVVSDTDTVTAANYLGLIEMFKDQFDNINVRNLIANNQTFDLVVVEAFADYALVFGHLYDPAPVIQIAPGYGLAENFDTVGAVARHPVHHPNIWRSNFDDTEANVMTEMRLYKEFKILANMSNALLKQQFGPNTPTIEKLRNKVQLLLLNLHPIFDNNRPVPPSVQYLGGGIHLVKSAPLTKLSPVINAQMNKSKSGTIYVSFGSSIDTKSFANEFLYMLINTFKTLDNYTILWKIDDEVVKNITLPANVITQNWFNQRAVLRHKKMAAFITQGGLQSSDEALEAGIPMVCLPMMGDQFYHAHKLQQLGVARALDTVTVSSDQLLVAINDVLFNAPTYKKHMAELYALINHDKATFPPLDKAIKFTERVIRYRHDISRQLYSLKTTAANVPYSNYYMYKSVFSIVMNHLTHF
Assay type: biochemical
Procedure: Experiments are then performed to more thoroughly investigate the substrate specificity of EGT. In these experiments various substrates (1 mM) are incubated in the presence of extracellular medium from wt-AcMNPV infected cells containing significant egt activity. As controls to ensure that any conjugation observed is due to EGT, each substrate is also incubated with media from uninfected and vEGTZ-infected cells, which cannot produce EGT. 0.05 μCi UDP-[U-^14 C]glucose are added to each reaction. Any compounds which function as substrates for EGT will be conjugated with glucose; they can be detected because the glucose is radioactively labeled.
Substrates are incubated in the presence of medium derived from
appropriately infected cells and 0.05 μCi UDP[U-^14 C]glucose.
Amounts of glucose transferred are calculated after scintillation countin
of the appropriate regions of the chromatography plates.
The only substrates identified are ecdysone, 20-hydroxyecdysone and makisterone A, all of which are ecdysteriods. No conjugation is observed using medium from mock- or vEGTZ-infected cells, confirming that the activity observed is due to expression of egt.

| Compound | wild type (pmol Glucose transferred) |
| --- | --- |
| CC(CC(O)C(C)(O)C1CCC2(O)C3=CC(=O)C4CC(O)C(O)CC4(C)C3CCC12C)C(C)(C)O (stereo not drawn) [Makisterone A] | 89.6 pmol |
| C[C@H]([C@H](O)CCC(C)(C)O)[C@H]1CC[C@@]2(O)C3=CC(=O)[C@@H]4C[C@@H](O)[C@@H](O)C[C@]4(C)[C@H]3CC[C@]12C [Ecdysone] | 155.7 pmol |
| CC(C)(O)CCC(O)C(C)(O)C1CCC2(O)C3=CC(=O)C4CC(O)C(O)CC4(C)C3CCC12C (stereo not drawn) [20-Hydroxyecdysone] | 87.8 pmol |
